Publication PMC9029538, “Dosing Colistimethate Every 8 h Results in Higher Plasma Concentrations of Active Colistin Than Every 12-Hourly Dosing without Increase in Nephrotoxicity: A Phase 1 Pharmacokinetics Trial in Healthy Adult Volunteers” (Antibiotics, 2022)
Read-outs that look alike come from different tables or passages of the source. Where a SMILES comes first, the peptide text is derived from it. Bridges are numbered along the chain shown (N, C = ends). [ ]: non-standard residue; d: D form. The star is where a group is joined. X1 = CC[C@H](C)CCCCC(=O)*; Dab = NCC[C@H](N)C(=O)O

Assays:
clinical = test: clinical
Method: (§1) During dosing Period 1, subjects in Cohorts 1, 2, and 3 received 2 to 3 doses of IV CMS (total exposure 5–10 mg/kg) based on the specific cohort regimen. During dosing Period 2, the same subjects then received 2 to 4 doses of 75 mg of CMS via aerosolized administration, and during dosing Period 3, subjects received a combination of IV and aerosolized CMS based on the specific cohort regimen. Each dosing period was followed by a washout period of at least 3 days (Table 1).
(§2) For all plasma PK collections, 3 mL samples of whole blood were drawn into collection tubes containing sodium heparin and placed immediately on ice at specified time intervals. […] The blood was centrifuged at 2500× g within 2 h of collection, and the plasma fraction was removed and frozen at −70 °C for shipment to the Analytical Pharmacology Laboratory at the University of Toledo.
(§3) The PK analysis was conducted using Phoenix™ WinNonlin® Version 6.2 (Pharsight, a Certara Company).
(§4) Concentration versus time profiles were investigated for each of the four colistin analytes. These profiles were augmented by the inclusion of estimated concentrations at additional time points, including dosing Period 1—immediately prior to the final IV dose; dosing Period 3—immediately prior to the final IV dose; and after the final IV dose. The following PK parameters were estimated for each: maximum observed concentration (Cmax), area under the plasma concentration versus time curve, AUC (e.g., AUC 0–inf), AUC 0–t) versus time curve, time to maximum observed concentration (Tmax), elimination half-life (t1/2), slope of the post-distributive terminal portion of plasma concentration versus time curve (Kel), total body clearance/bioavailability (CL/F), and the apparent steady-state volume of distribution/bioavailability ([…]). The concentrations of intravenously administered CMS, aerosolized drug, and both delivery methods used simultaneously were compared. In addition, the presence or absence of a proportionality dose-dependent effect was determined.

[1] = Plasma pharmacokinetics after IV CMS (Period 1); conditions: for AUC(0-t) / AUC(0-inf) / clearance / Cmax / Vd / half-life / Tmax: human, in vivo, iv; for clearance: CL; for Vd: Vdss; for Tmax: median (min-max)
Method: as §1, §2, §3, §4

[2] = Period 3, Cohort 1: IV 2.5 mg/kg q12h x 2 doses + aerosol 75 mg colistin base activity q12h x 2 doses; plasma after final dose; median (min-max)
Method: as §1, §2, §3
Concentration versus time profiles were investigated for each of the four colistin analytes. These profiles were augmented by the inclusion of estimated concentrations at additional time points, including dosing Period 1—immediately prior to the final IV dose; dosing Period 3—immediately prior to the final IV dose; and after the final IV dose. […] In addition, the presence or absence of a proportionality dose-dependent effect was determined.

[3] = Period 2, Cohort 2: aerosol 75 mg colistin base activity q8h x 3 doses, plasma after final dose, mean (SD), SD
[4] = 2.5 mg/kg, Period 1, Cohort 1: IV 2.5 mg/kg colistin base activity q12h x 2 doses, plasma after final dose, mean (SD), SD
[5] = 2.5 mg/kg, Period 1, Cohort 2: IV 2.5 mg/kg colistin base activity q8h x 3 doses, plasma after final dose, mean (SD), SD
[6] = 3.3 mg/kg, Period 1, Cohort 3: IV 3.3 mg/kg colistin base activity q8h x 3 doses, plasma after final dose, mean (SD), SD

CC[C@H](C)CCCCC(=O)N[C@@H](CCN)C(=O)N[C@H](C(=O)N[C@@H](CCN)C(=O)N[C@H]1CCNC(=O)[C@H]([C@@H](C)O)NC(=O)[C@H](CCN)NC(=O)[C@H](CCN)NC(=O)[C@H](CC(C)C)NC(=O)[C@@H](CC(C)C)NC(=O)[C@H](CCN)NC1=O)[C@@H](C)O [colistin A] (X1-[Dab]T[Dab][Dab][Dab][dL]L[Dab][Dab]T; lactam 4-C)
t1/2 (clinical; Period 2, Cohort 1: aerosol 75 mg colistin base activity q12h x 2 doses, plasma after final dose, mean (SD)): 8.37 h | CL/F (clinical; [3]): 8.12 (0.628) L/h | t1/2 (clinical; [3]): 7.81 (1.33) h | t1/2 (clinical; Period 2, Cohort 3: aerosol 75 mg colistin base activity q6h x 4 doses, plasma after final dose, mean (SD), SD): 26.0 (31.2) h | circulating plasma concentrations following aerosol administration alone (clinical; Period 2, aerosol only): low and not related to the dose administered | AUC(0-t) (clinical; human, in vivo, inhaled or intranasal, 75 mg, AUC(0-t),, SD): 4220 ng·h/mL | CL/F (clinical; human, in vivo, inhaled or intranasal, 75 mg, CL/F): 136 mL/min | Cmax (clinical; human, in vivo, inhaled or intranasal, 75 mg, Cmax,, SD): 493 ng/mL | Vd/F (clinical; human, in vivo, inhaled or intranasal, 75 mg, Vdss/F): 98.7 L | AUC(0-t) [1, 4]: 21800 ng·h/mL | AUC(0-t) [1, 5]: 30400 ng·h/mL | AUC(0-inf) [1, 4]: 23800 ng·h/mL | AUC(0-inf) [1, 5]: 33000 ng·h/mL | clearance [1, 4]: 103 mL/min | clearance [1, 5]: 74.5 mL/min | Cmax [1, 4]: 3950 ng/mL | Cmax [1, 5]: 5360 ng/mL | Vd [1, 4]: 29.5 L | Vd [1, 5]: 21.7 L | half-life ([1]; 2.5 mg/kg, t1/2, Period 1, Cohort 1: IV 2.5 mg/kg colistin base activity q12h x 2 doses, plasma after final dose, mean (SD), SD): 3.32 h | half-life ([1]; 2.5 mg/kg, t1/2, Period 1, Cohort 2: IV 2.5 mg/kg colistin base activity q8h x 3 doses, plasma after final dose, mean (SD), SD): 3.47 h | Tmax ([1]; 2.5 mg/kg, Period 1, Cohort 1: IV 2.5 mg/kg colistin base activity q12h x 2 doses, plasma after final dose): 1.02 h | Tmax ([1]; 2.5 mg/kg, Period 1, Cohort 2: IV 2.5 mg/kg colistin base activity q8h x 3 doses, plasma after final dose): 0.6 h | AUC(0-t) [1, 6]: 49100 ng·h/mL | AUC(0-inf) [1, 6]: 52400 ng·h/mL | clearance [1, 6]: 64.5 mL/min | Cmax [1, 6]: 8740 ng/mL | Vd [1, 6]: 22.2 L | half-life ([1]; 3.3 mg/kg, t1/2, Period 1, Cohort 3: IV 3.3 mg/kg colistin base activity q8h x 3 doses, plasma after final dose, mean (SD), SD): 4.22 h | Tmax ([1]; 3.3 mg/kg, Period 1, Cohort 3: IV 3.3 mg/kg colistin base activity q8h x 3 doses, plasma after final dose): 1 h | half-life ([1]; elimination t1/2 (half-life, as stated in text), plasma): ~3.5 h | time concentrations stay above the target of 2 μg/mL after dosing ([1]; q8h dosing, 8 h between doses): 6 h | Tmax [2]: 1.43 (0.883 – 2.38) h
